Measured values reported in ChEMBL document CHEMBL1156829 (Proc Natl Acad Sci U S A, 2008).

How the values were obtained:
[1] = system: Plasmodium falciparum; test: NOVARTIS: Inhibition of Plasmodium falciparum 3D7 (drug-susceptible) proliferation in erythrocyte-based infection assay; type: functional, organism-based; conditions: Plasmodium falciparum, 3D7
[2] = system: Plasmodium falciparum; test: NOVARTIS: Inhibition of Plasmodium falciparum W2 (drug-resistant) proliferation in erythrocyte-based infection assay; type: functional, organism-based; conditions: Plasmodium falciparum, W2; read-out: EC50
[3] = NOVARTIS: Cytotoxicity against human hepatocellular carcinoma cell line (Huh7); type: toxicity, cell-based, Huh-7; conditions: Huh7 cells (hepatocellular carcinoma cell line)

| SMILES | EC50 [1] [nM] | EC50 [2] [nM] | CC50 [3] [nM] |
| --- | --- | --- | --- |
| CC(c1nc2ccccc2c(=O)n1C)N1CCN(C(=O)C(C)(C)C)CC1 (stereo not given) | 185 | 191 | > 10000 |
| COc1cc(C(c2c(C)n(C)n(-c3ccccc3)c2=O)c2c(C)n(C)n(-c3ccccc3)c2=O)cc(Cl)c1OCc1ccccc1 | 2700 | 456 | 38300 |
| CCN1CCCC1CNc1[nH]cnc2c3cc(F)ccc3nc1-2 (stereo not given) | 808 | 1260 | 22400 |
| O=C(CCc1ccccc1)NCCCCNc1ccnc2cc(Cl)ccc12 | 142 | < 13.8 | > 10000 |
| COc1cccc(CNCCCCCCCCCCCCNCc2cccc(OC)c2O)c1O | 819 | 1010 | 53500 |
| CN1CCN(Cc2c(O)ccc3c(=O)c(Oc4ccc(C(C)(C)C)cc4)c(C(F)(F)F)oc23)CC1 | 1800 | 547 | > 100000 |
| O=C(CSc1nccn1C1CCCC1)Nc1cc(C(F)(F)F)ccc1Cl | 545 | 714 | > 100000 |
| CSC1=NC(C)(C)CC2(CC(c3ccc(C)cc3)c3cc(Cl)c(O)cc3O2)N1 (stereo not given) | 993 | 602 | > 10000 |
| CCCCCCCn1c2c(c(=N)c3c1CCC3)CCCC2 | 69.3 | 91.4 | 2720 |
| CC(NC(=O)c1cnn2c(C(F)(F)F)cc(-c3ccc(Br)cc3)nc12)c1ccccc1 (stereo not given) | > 10800 | 1520 | > 100000 |
| CCOc1ccc2c(c1)cc(CN(C(C)=O)C1CCCC1)c1nnnn12 | > 1250 | 268 | > 10000 |
| CN1CCN(c2nc(NN=Cc3cc(I)ccc3O)nc(Nc3ccc([N+](=O)[O-])cc3)n2)CC1 | 383 | 316 | 47700 |
| O=C(Nc1ccc(-n2cccn2)cc1)C1CCN(CC=Cc2ccccc2)CC1 | 887 | 344 | > 99800 |
| COc1cc(NC(C)CCCN(Cc2ccc(F)cc2)C(=O)CCc2ccccc2)c2ncccc2c1 (stereo not given) | 1400 | 361 | 4620 |
| COc1ccc(C[n+]2cc(-c3ccc(Cl)cc3)n3ccccc32)cc1 | 413 | 524 | > 100000 |
| CCOC(=O)c1ccc(OCC2c3cc(OC)c(OC)cc3CCN2C(=O)Nc2ccc(Cl)cc2)cc1 (stereo not given) | 1970 | 292 | > 100000 |
| CCCCNCCN1CCN(c2cc(OC)cc(OC)c2)C[C@@H]1Cc1ccccc1 | > 1250 | 938 | 10300 |
| O=C(NCCCN1CCCC1=O)C(=O)NCC(c1ccco1)N1CCOCC1 (stereo not given) | > 1250 | 1350 | > 10000 |
| O=C(NC(=CC=Cc1ccccc1)C(=O)N1CCOCC1)c1ccccc1 | 3860 | 122 | > 100000 |
| O=C(CN1CCC(NC(=O)c2cccc(F)c2)CC1)NC1CC1 | > 1250 | 26.7 | > 10000 |
| O=C(C=Cc1ccccc1)c1c(-c2ccccc2)c2cc([N+](=O)[O-])ccc2[nH]c1=O | > 9370 | > 4460 | > 100000 |
| CCC(C)(C)c1ccc(OCCCC[n+]2ccc(C)cc2)c(C(C)(C)CC)c1 | 532 | 193 | 12000 |
| CCOc1cc(C2CC(=O)NC3=C2C(=O)CC(c2ccc(OC)c(OC)c2)C3)ccc1O (stereo not given) | 781 | 155 | > 100000 |
| CC(C)CN1C(=O)c2ccccc2C(C(=O)Nc2ccc(F)c(Cl)c2)C1c1cccs1 (stereo not given) | 121 | 120 | > 95200 |
| CC(NCCC(c1ccccc1)c1ccccc1O)c1ccccc1 (stereo not given) | 1120 | 277 | > 10000 |

| SMILES | EC50 [1] [nM] | EC50 [2] [nM] | CC50 [3] [nM] |
| --- | --- | --- | --- |
| CN(C)CCNc1cc(-c2ccccc2)nc2ccccc12 | 692 | 819 | 21200 |
| C/C(=C\c1csc(C)n1)[C@@H]1C[C@@H]2O[C@@H]2CCC[C@H](C)C(O)[C@@H](C)C(=O)C(C)(C)[C@@H](O)CC(=O)O1 (stereo not given in full) | 1030 | 156 | > 10000 |
| O=C1C(Nc2ccc(Cl)cc2)=C(N2CCCCC2)C(=O)c2ccccc21 | 319 | 250 | 53200 |
| COc1cccc(-c2cc(N=C(NCc3ccco3)SC)n[nH]2)c1 | > 11300 | 2870 | 70400 |
| Cc1cccc(N2C(=O)C3C(C2=O)C2(c4ccccc4)C(=O)C3(c3ccccc3)C(c3ccc4c(c3)OCO4)=C2c2ccc3c(c2)OCO3)c1 (stereo not given) | 1070 | 508 | > 100000 |
| CCOc1ccc(N2C(=O)c3ccccc3NC2(C)C)cc1 | > 9970 | > 12500 | > 100000 |
| O=C(Nc1nccs1)c1cc(-c2cccnc2)nc2ccc(Br)cc12 | 1080 | > 10400 | > 100000 |
| CCCCCCCCCCCCCC(=O)Oc1ccccc1-c1nc2cc(C)ccn2c1NC(C)(C)CC(C)(C)C | 1520 | 88.4 | > 10000 |
| O=C(NCCC1=CCCCC1)c1ccc2c(=O)n(-c3ccccc3)c(SCc3nc4ccccc4[nH]3)nc2c1 | > 1250 | 1460 | > 912 |
| COc1ccc(OC)c(-c2ccc(C(=O)N3CCN(CC=Cc4ccccc4)CC3)c(N(C)C)n2)c1 | 94.6 | 145 | 32800 |
| COc1ccc(C2=C/C(=C/c3cccc(OC)c3OC)C(=O)O2)cc1OC | 1140 | > 751 | > 10000 |
| O=C(Nc1cccc(C(F)(F)F)c1)c1ccc(-c2cccs2)cc1 | 10000 | 1940 | 7130 |
| CC[n+]1c(/C=C/C=C2\N(C)c3ccccc3C2(C)C)n(Cc2ccccc2)c2ccccc21 | 355 | 219 | 2420 |
| Cc1cccc(OCC(O)CN2CCN(CC(=O)c3ccc(Br)cc3)CC2)c1 (stereo not given) | > 1250 | 896 | 214 |
| Cn1ccnc1C1CCCCN1C(=O)c1cc(COc2ccc(F)cc2Cl)on1 (stereo not given) | 1830 | 673 | > 100000 |
| CCN(CC)CCN1C(=O)c2ccccc2NC1c1ccc(C)cc1 (stereo not given) | 858 | 1050 | > 100000 |
| Cc1cc(NCCc2ccccc2)nc2cc(O)ccc12 | 377 | 69.5 | 29500 |
| O=C(N/C(=C/C=C\c1ccccc1)C(=O)N1CCOCC1)c1ccc(Br)cc1 | > 1300 | 401 | > 10000 |
| COC(=O)C1=C(C)N/C(=C\c2cc(C)n(-c3cc(C)ccc3C)c2C)C1=O | 12.4 | 15.1 | > 10000 |
| CCOc1nc2c(c(=O)n(C)c(=O)n2C)n1Cc1cccc(Br)c1 | > 1620 | > 885 | > 10000 |
| Cc1ccccc1NC(=S)NC(Cc1ccccc1)c1ccccc1 (stereo not given) | 374 | 340 | > 10000 |
| CCCN1CCN(CCCNC(=O)c2ccc3c(c2)sc2nc(-c4ccc(OC)cc4)cn23)CC1 | 2440 | 4380 | > 100000 |
| CCOc1ccc(C(=O)C[N+]2=C(CC)c3ccc(C)n3CC2)cc1 | 2440 | 2190 | 81000 |
| COc1ccccc1CNC(=O)C1c2ccccc2C(=O)N2CCc3ccccc3C12 (stereo not given) | 4900 | 2250 | > 100000 |
| CN(C)CCCNc1ncnc2c1[nH]c1ccc(F)cc12 | 93.1 | 305 | 48700 |
